Data from US20240327380A1, “BTK INHIBITORS” (BIOGEN MA INC., priority 2020, published 2024).

What was measured:
[1] = test system: CD69 expression on CD19+ B cells in human whole blood; test: In Vitro whole blood CD69 Assay; assay type: cell-based; conditions: B-cell; human heparinized whole blood, anti-human IgD stimulation overnight, percentage of CD19+ B cells expressing CD69, flow cytometry; read-out: IC50
Protocol: In Vitro whole blood CD69 Assay
Human heparinized venous blood from health donors was aliquoted into 96-well plate and “spiked” with serial dilutions of formula I compounds in DMSO or with DMSO without drug. The final concentration of DMSO in all wells was 0.1%. The plate was incubated at 37° C. for 30 min. Drug-containing samples were stimulated with […] mouse anti-human IgD-dextran (1A62) or […] polyclonal rabbit F(ab′)2 anti-human IgD. Phosphate-buffered saline (PBS) was added to the negative control unstimulated sample and the plates were incubated overnight (18 to 22 hours) at 37° C. Cells were stained with fluorochrome-conjugated anti-CD19 and anti-CD69 antibodies. Lyse/fix solution was used to remove red blood cells by hypotonic lysis and to fix the remaining cells, which were then analyzed by flow cytometry. CD19+ B cells were gated and analyzed for CD69 expression. The percentage of B cells expressing CD69 was plotted versus the log 10 of the concentration of the drug and the best-fit curves (variable Hill slope) were generated to obtain the IC50 value.

[2] = molecular target: T1, active BTK enzyme (Upstate 14-552) (Homo sapiens, UniProt Q06187); test: In Vitro BTK Kinase Assay: Btk-PolyGAT-LS Assay; assay type: biochemical; conditions: ATP 10 μM, polyGAT 100 nM, BTK 0.25 nM, 30 minutes, TRF readout
T1 construct: purchased Upstate 14-552
In short: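 Active BTK (0.25 nM) phosphorylates fluorescein-polyGAT peptide (100 nM) with 10 µM ATP in Tris-HCl pH 7.5/MgCl2/DTT buffer, 30 min, EDTA stop. Phosphopeptide detected by TR-FRET with Tb-PY20 antibody after 45 min at room temperature; IC50 from four-parameter fit against DMSO and EDTA controls.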

T1 sequence (Q06187 whole entry): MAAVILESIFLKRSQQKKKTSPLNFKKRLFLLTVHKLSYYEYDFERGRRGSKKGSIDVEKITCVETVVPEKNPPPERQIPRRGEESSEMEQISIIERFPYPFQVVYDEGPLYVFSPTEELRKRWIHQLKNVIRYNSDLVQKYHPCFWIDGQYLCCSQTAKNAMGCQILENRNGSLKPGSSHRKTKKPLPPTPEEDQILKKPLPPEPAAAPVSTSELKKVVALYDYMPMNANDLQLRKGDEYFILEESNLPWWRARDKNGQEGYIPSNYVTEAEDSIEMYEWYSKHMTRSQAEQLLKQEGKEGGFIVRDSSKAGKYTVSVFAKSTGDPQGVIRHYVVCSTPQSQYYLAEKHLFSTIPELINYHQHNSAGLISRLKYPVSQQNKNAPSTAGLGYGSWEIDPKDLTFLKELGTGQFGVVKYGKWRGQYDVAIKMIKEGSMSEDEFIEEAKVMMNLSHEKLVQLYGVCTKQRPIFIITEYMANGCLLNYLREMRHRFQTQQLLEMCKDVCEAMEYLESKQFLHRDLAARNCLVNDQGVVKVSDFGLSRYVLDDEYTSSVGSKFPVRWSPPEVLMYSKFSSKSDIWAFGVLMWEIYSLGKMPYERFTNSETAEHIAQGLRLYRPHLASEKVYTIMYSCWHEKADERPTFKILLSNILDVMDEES

| Compound | IC50 [1] [µM] | IC50 [2] [µM] |
| --- | --- | --- |
| Cc1cc(-c2c(C#N)cncc2N2CCN(C(=O)/C=C/CN(C)C)CC2)ccc1CNC(=O)c1noc(C(C)(C)C)n1 [Example 69, (E)-5-(tert-butyl)-N-(4-(3-cyano-5-(4-(4-(dimethylamino)but-2-enoyl)piperazin-1-yl)pyridin-4-yl)-2-methylbenzyl)-1,2,4-oxadiazole-3-carboxamide] | 0.1 to 1 | 0.001 to 0.01 |
| C=CC(=O)N(C)C1CCCN(c2cnccc2-c2ccc(CNC(=O)c3ncn(C(C)(C)C)n3)c(C)c2)C1 (stereo not shown) [Example 40, 1-(tert-butyl)-N-(2-methyl-4-(3-(3-(N-methylacrylamido)piperidin-1-yl)pyridin-4-yl)benzyl)-1H-1,2,4-triazole-3-carboxamide] | > 1 | 0.001 to 0.01 |
| C=CC(=O)N(C)C1CCCN(c2cnccc2-c2ccc(CNC(=O)c3ccn(C(C)(C)C)n3)c(C)c2)C1 (stereo not shown) [Example 44, 1-(tert-butyl)-N-(2-methyl-4-(3-(3-(N-methylacrylamido)piperidin-1-yl)pyridin-4-yl)benzyl)-1H-pyrazole-3-carboxamide] | > 1 | 0.001 to 0.01 |
| Cc1cc(-c2ccncc2N2CCN(C(=O)/C=C/CN(C)C)CC2)ccc1CNC(=O)c1nc(C2(CF)CC2)no1 [Example 94, (E)-N-(4-(3-(4-(4-(dimethylamino)but-2-enoyl)piperazin-1-yl)pyridin-4-yl)-2-methylbenzyl)-3-(1-(fluoromethyl)cyclopropyl)-1,2,4-oxadiazole-5-carboxamide] | 0.1 to 1 | ≤ 0.001 |
| C=CC(=O)N(C)C1CCCN(c2cnccc2-c2ccc(CNC(=O)c3noc(C(C)(C)C)n3)c(C)c2)C1 (stereo not shown) [Example 12, 5-(tert-butyl)-N-(2-methyl-4-(3-(3-(N-methylacrylamido)piperidin-1-yl)pyridin-4-yl)benzyl)-1,2,4-oxadiazole-3-carboxamide] | < 0.1 | ≤ 0.001 |
| C=CC(=O)N1CCN(c2cnccc2-c2ccc(CNC(=O)c3noc(C(C)(C)C)n3)c(C)c2)CC1 [Example 63, N-(4-(3-(4-acryloylpiperazin-1-yl)pyridin-4-yl)-2-methylbenzyl)-5-(tert-butyl)-1,2,4-oxadiazole-3-carboxamide] | 0.1 to 1 | ≤ 0.001 |
| C=CC(=O)N(C)C1CCN(c2cnccc2-c2ccc(CNC(=O)c3cn(C(C)(C)C)nn3)c(C)c2)C1 (stereo not shown) [Example 2, 1-(tert-butyl)-N-(2-methyl-4-(3-(3-(N-methylacrylamido)pyrrolidin-1-yl)pyridin-4-yl)benzyl)-1H-1,2,3-triazole-4-carboxamide] | 0.1 to 1 | 0.001 to 0.01 |
| Cc1cc(-c2ncncc2N2CCN(C(=O)/C=C/CN(C)C)CC2)ccc1CNC(=O)c1noc(C(C)(C)C)n1 [Example 82, (E)-5-(tert-butyl)-N-(4-(5-(4-(4-(dimethylamino)but-2-enoyl)piperazin-1-yl)pyrimidin-4-yl)-2-methylbenzyl)-1,2,4-oxadiazole-3-carboxamide] | < 0.1 | ≤ 0.001 |
| C=CC(=O)N(C)C1CCCN(c2cnccc2-c2ccc(CNC(=O)c3cn(C(C)(C)C)cn3)c(C)c2)C1 (stereo not shown) [Example 43, 1-(tert-butyl)-N-(2-methyl-4-(3-(3-(N-methylacrylamido)piperidin-1-yl)pyridin-4-yl)benzyl)-1H-imidazole-4-carboxamide] | > 1 | 0.001 to 0.01 |

More lines, now with the values ahead:

| IC50 [1] [µM] | IC50 [2] [µM] | Compound |
| --- | --- | --- |
| 0.1 to 1 | ≤ 0.001 | C=CC(=O)N1CCN(c2cnccc2-c2ccc(CNC(=O)c3cn(C(C)(C)C)nn3)c(C)c2)CC1 [Example 49, N-(4-(3-(4-acryloylpiperazin-1-yl)pyridin-4-yl)-2-methylbenzyl)-1-(tert-butyl)-1H-1,2,3-triazole-4-carboxamide] |
| 0.1 to 1 | 0.001 to 0.01 | C=CC(=O)N1CCC(c2cnccc2-c2ccc(CNC(=O)c3noc(C(C)(C)C)n3)c(C)c2)CC1 [Example 35, N-(4-(3-(1-acryloylpiperidin-4-yl)pyridin-4-yl)-2-methylbenzyl)-5-(tert-butyl)-1,2,4-oxadiazole-3-carboxamide] |
| > 1 | 0.001 to 0.01 | C=CC(=O)N1CCC[C@H](c2cnccc2-c2ccc(CNC(=O)c3cn(C(C)(C)C)nn3)c(C)c2)C1 (single isomer, unassigned) [Example 24] |
| 0.1 to 1 | 0.001 to 0.01 | C=CC(=O)N1CCC(c2cnccc2-c2ccc(CNC(=O)c3nc(C(C)(C)C)no3)c(C)c2)CC1 [Example 36, N-(4-(3-(1-acryloylpiperidin-4-yl)pyridin-4-yl)-2-methylbenzyl)-3-(tert-butyl)-1,2,4-oxadiazole-5-carboxamide] |
| 0.1 to 1 | ≤ 0.001 | C=CC(=O)N(C)[C@@H]1CCCN(c2cnccc2-c2ccc(CNC(=O)c3noc(C(C)(C)C)n3)c(C)c2F)C1 (stereo in doubt) [Example 19, 5-(tert-butyl)-N-(3-fluoro-2-methyl-4-(3-(3-(N-methylacrylamido)piperidin-1-yl)pyridin-4-yl)benzyl)-1,2,4-oxadiazole-3-carboxamide] |
| 0.1 to 1 | ≤ 0.001 | C=CC(=O)N(C)C1CCCN(c2cnccc2-c2ccc(CNC(=O)c3cnn(C(C)(C)C)c3)c(C)c2)C1 (stereo not shown) [Example 42, 1-(tert-butyl)-N-(2-methyl-4-(3-(3-(N-methylacrylamido)piperidin-1-yl)pyridin-4-yl)benzyl)-1H-pyrazole-4-carboxamide] |
| > 1 | 0.001 to 0.01 | C=CC(=O)N1CCCC(c2cnccc2-c2ccc(CNC(=O)c3nc(C4(C)CC4)no3)c(C)c2)C1 (stereo not shown) [Example 29, N-(4-(3-(1-acryloylpiperidin-3-yl)pyridin-4-yl)-2-methylbenzyl)-3-(1-methylcyclopropyl)-1,2,4-oxadiazole-5-carboxamide] |
| 0.1 to 1 | ≤ 0.001 | C=CC(=O)N(C)C1CCCN(c2cnccc2-c2ccc(CNC(=O)c3nc(C(C)(C)C)no3)c(C)c2F)C1 (stereo not shown) [Example 18, 3-(tert-butyl)-N-(3-fluoro-2-methyl-4-(3-(3-(N-methylacrylamido)piperidin-1-yl)pyridin-4-yl)benzyl)-1,2,4-oxadiazole-5-carboxamide] |
| 0.1 to 1 | 0.001 to 0.01 | C=CC(=O)N(C)C1COCCN(c2cnccc2-c2ccc(CNC(=O)c3cn(C(C)(C)C)nn3)c(C)c2)C1 (stereo not shown) [Example 52, 1-(tert-butyl)-N-(2-methyl-4-(3-(6-(N-methylacrylamido)-1,4-oxazepan-4-yl)pyridin-4-yl)benzyl)-1H-1,2,3-triazole-4-carboxamide] |
| 0.1 to 1 | 0.001 to 0.01 | Cc1cc(-c2ccncc2N2CCN(C(=O)/C=C/CN(C)C)CC2)ccc1[C@@H](C)NC(=O)c1noc(C(C)(C)C)n1 [Example 86, (R,E)-5-(tert-butyl)-N-(1-(4-(3-(4-(4-(dimethylamino)but-2-enoyl)piperazin-1-yl)pyridin-4-yl)-2-methylphenyl)ethyl)-1,2,4-oxadiazole-3-carboxamide] |
| 0.1 to 1 | 0.001 to 0.01 | C=CC(=O)N1CCCC(c2cnccc2-c2ccc(CNC(=O)c3noc(C4(C)CC4)n3)c(C)c2)C1 (stereo not shown) [Example 26, N-(4-(3-(1-acryloylpiperidin-3-yl)pyridin-4-yl)-2-methylbenzyl)-5-(1-methylcyclopropyl)-1,2,4-oxadiazole-3-carboxamide] |
